Test results reported in patent US9512486B2, “Materials, methods, and systems for treating cancer” (The Institute of Cancer Research: Royal Cancer Hospital, priority 2012, dated 2016).

Legend:
Assay type in all cases: cell-based
[1] = system: CHO cells mutated in RAD51D; experiment: Olaparib sensitivity of wild-type versus RAD51D mutated CHO cells, cell viability; details: CHO RAD51D WT (51D1.3 clone) vs RAD51D deficient CHO (51D1 clone), olaparib for 7 days, FIG. 3C
Text: (§1) This method has clinical utility both for individuals with cancer and their relatives. Cancer patients with RAD51D mutations may benefit from specific therapies such as Poly (ADP-Ribose) Polymerase (PARP) inhibitors, which have shown efficacy in patients with impairment of HR due to mutations in BRCA1 or BRCA2. To investigate this we used RNA interference (RNAi) and assessed the relationship between RAD51D loss of function and the sensitivity of tumor cells to a clinical PARP inhibitor, olaparib (AstraZeneca) 4-[(3-[(4-cyclopropylcarbonyl)piperazin-4-yl]carbonyl)-4-fluorophenyl]methyl(2H)phthalazin-1-one. Referring now to FIG. 3. The effect of RAD51D silencing on olaparib sensitivity. CAL51 (FIG. 3A) or MCF7 (FIG. 3B) cells were transfected with siCONTROL, siRNA directed against RAD51D or siRNA directed against BRCA2 and then treated with olaparib for 7 days before assaying for cell viability. Wild-type CHO cells or CHO cells mutated in RAD51D were treated with olaparib for 7 days before assaying for cell viability (FIG. 3C).
(§2) Non-silencing BRCA2 and RAD51D SIGENOME siRNAs (Dharmacon, Lafayette, Colo., USA) were used. […] After 7 days continuous culture, cell viability was estimated using Cell TitreGlo reagent (Promega Madison, Wis., USA) and surviving fractions calculated as previously described.

[2] = system: MCF7 cells transfected with siRNA directed against RAD51D; experiment: Olaparib sensitivity after RAD51D silencing, cell viability (Cell TitreGlo), MCF7; details: siRAD51D vs siCONTROL and siBRCA2, olaparib titration for 7 days, FIG. 3B
Text: as §1, §2

[3] = system: CAL51 cells transfected with siRNA directed against RAD51D; experiment: Olaparib sensitivity after RAD51D silencing, cell viability (Cell TitreGlo), CAL51; details: siRAD51D vs siCONTROL and siBRCA2, olaparib titration for 7 days, FIG. 3A
Text: as §1, §2

In the case of `O=C(c1cc(Cc2n[nH]c(=O)c3ccccc23)ccc1F)N1CCN(C(=O)C2CC2)CC1` [olaparib, 4-[(3-[(4-cyclopropylcarbonyl)piperazin-4-yl]carbonyl)-4-fluorophenyl]methyl(2H)phthalazin-1-one], the “olaparib sensitivity (Surviving Fraction)” value [1] is reported as “RAD51D selective effect”, the “olaparib sensitivity (Surviving Fraction)” value ([1]; listed as Olaparib) is reported as “particularly effective in causing the death of cells that have an inactivating mutation of RAD51D” and the “olaparib sensitivity (Surviving Fraction)” value [2] is reported as “olaparib sensitivity of a magnitude similar to that achieved using silencing of BRCA2”. The “olaparib sensitivity (Surviving Fraction)” value [3] was “olaparib sensitivity of a magnitude similar to that achieved using silencing of BRCA2”.
